US20100210694A1 (NICOX S.A., priority 2007, published 2010)
Read-outs that look alike come from different tables or passages of the source.

Key:
rat aorta strips = assay: Vasodilating activity on precontracted rat aorta strips; format: cell-based; conditions: endothelium-denuded rat aortic strips contracted with 1 μM L-phenylephrine; for EC50: read-out: vasodilating activity EC50 ± SE
Experimental: Thoracic aortas were isolated from male Wistar rats weighing 180-200 g. The endothelium was removed and the vessels were helically cut: three strips were obtained from each aorta. The tissues were mounted under 1.0 g tension in organ baths containing 30 ml of Krebs-bicarbonate buffer with the following composition (mM): NaCl 111.2, KCl 5.0, CaCl2 2.5, MgSO4 1.2, KH2PO4 1.0, NaHCO3 12.0, glucose 11.1, maintained at 37° C. and gassed with 95% O2-5% CO2 (pH=7.4). The aortic strips were allowed to equilibrate for 120 min and then contracted with 1 μM L-phenylephrine. When the response to the agonist reached a plateau, cumulative concentrations of the vasodilating agent were added.
All the compounds of the invention were capable to relax precontracted rat aorta strips in a concentration dependent manner.
When the vasodilator experiments were repeated in the presence of 1 μM ODQ (1H-[1,2,4]oxadiazolo[4,3-a]quinoxalin-1-one), a well known inhibitor of the soluble guanylate cyclase (sGC), a decrease in the vasodilator potencies was observed.

[1] = Hydrolysis in acidic medium (pH 1) and in phosphate buffer (pH 7.4); format: physicochemical; conditions: for Stability in buffered solutions pH 1 % unchanged after 6 h: HCl 0.1M, pH 1, 37 °C; for Stability in buffered solutions pH 1 % unchanged after 6 h / Stability in buffered solutions pH 7.4 % unchanged after 6 h: 250 μM; for Stability in buffered solutions pH 7.4 % unchanged after 6 h: phosphate buffer 50 mM pH 7.4, 37 °C
Experimental: A solution of each compound of the invention (10 mM) in acetonitrile was added to a HCl 0.1M or to a phosphate buffer 50 mM pH=7.4, containing, when necessary, 10-20% of acetonitrile as cosolvent. The final concentration of the compound was 250 μM. Resulting solution was kept at 37±0.5° C. and at appropriate time intervals a 20 μL aliquote of reaction solution was analysed by RP-HPLC.
(§1) Analyses were carried out with a HP 1100 chromatograph system (Agilent Technologies, Palo Alto, Calif., USA) equipped with a quaternary pump (model G1311A), a membrane degasser (G1379A), a diode-array detector (DAD) (model G1315B) integrated in the HP1100 system. Data analysis was done using a HP ChemStation system (Agilent Technologies). The analytical column was a Nucleosil 100-5018 Nautilus (250×4.6 mm, 5 μm particle size) (Macherey-Nagel). The mobile phase consisting of acetonitrile/water (55/45) with 0.1% trifluoroacetic acid and the flow-rate was 1.2 mL/min. The injection volume was 20 μL (Rheodyne, Cotati, Calif.). The column effluent was monitored at 240 nm (for salicylic acid) and at 226 nm (for all the other products) and referenced against a 360 nm wavelength. Quantitation was done by comparison of peak areas with standards chromatographed under the same conditions. The hydrolysis followed first-order kinetics. The observed pseudo-first-order rate constants (kobs) were calculated from the slopes of linear plots of the natural logarithms of percent remaining products against time and the corresponding half-lives (t1/2) were obtained from […]

[2] = Hydrolysis in human serum; format: in vitro ADME; conditions: male, 37 °C, compound 250 μM, read-out: Human serum stability t1/2
Experimental: A solution of each compound of the invention (10 mM) in acetonitrile was added to human serum (from human male AB plasma, Sigma) preheated at 37° C., the final concentration of the compound was 250 μM. Resulting solution were incubated at 37±0.5° C. and at appropriate time intervals 500 μL of reaction mixture was withdrawn and added to 750 μL of acetonitrile containing 0.1% trifluoroacetic acid in order to deproteinize the serum. Sample was sonicated, vortexed and then centrifuged for 10′ at 2150 g. The clear supernatant was filtered by 0.45 μm PTFE filters (Alltech) and analysed by RP-HPLC.
as §1

human platelets = assay: Inhibition of platelet aggregation in vitro; format: cell-based; conditions: human PRP, collagen 1.0 μg/mL
Experimental: Platelet rich plasma (PRP) is prepared by centrifugation of citrated blood at 200 g for 20 minutes. […] Collagen (1.0 μg/mL) is used as platelet activator in PRP. The inhibitory activity of the compounds is tested by addition of drug to PRP 10 or 30 min before addition of the stimulus.
The antiaggregatory activity of the compounds of the invention is evaluated as % inhibition of platelet aggregation compared to control samples.

[3] = drug added 10 min before stimulus, read-out: Platelet Aggregation IC50 (collagen 95%) 10 min
[4] = drug added 30 min before stimulus, read-out: Platelet Aggregation IC50 (collagen 95%) 30 min

| SMILES | half-life at 250 μM [2] [min] | EC50 (rat aorta strips) [nM] | Stability in buffered solutions pH 1 % unchanged after 6 h [1] [%] | Stability in buffered solutions pH 7.4 % unchanged after 6 h [1] [%] | further results |
| --- | --- | --- | --- | --- | --- |
| CC(=O)Oc1ccccc1C(=O)OCOC(=O)c1ccc(CC(CO[N+](=O)[O-])O[N+](=O)[O-])cc1 (centres unmarked) [(1), ({4-[2,3-Bis(nitrooxy)propyl]benzoyl}oxy)methyl 2-(acetyloxy)benzoate] | 3.4 | 52 ± 7 | >98 | 100 |  |
| CC(=O)Oc1ccccc1C(=O)OCOC(=O)c1ccc(OCCCO[N+](=O)[O-])cc1 [(2), ({4-[3-(Nitrooxy)propoxy]benzoyl}oxy)methyl 2-(acetyloxy)benzoate] | 3 | 17 ± 3 | >98 | >98 |  |
| CC(=O)Oc1ccccc1C(=O)OCOC(=O)c1ccc(OCC(CO[N+](=O)[O-])O[N+](=O)[O-])cc1 (centres unmarked) [(3), ({4-[2,3-Bis(nitrooxy)propoxy]benzoyl}oxy)methyl 2-(acetyloxy)benzoate] | 5.4 | 41 ± 7 | >98 | >98 |  |
| CC(=O)Oc1ccccc1C(=O)OCOC(=O)CCCCO[N+](=O)[O-] [(4)] |  | 1900 ± 500 |  |  |  |
| CC(=O)Oc1ccccc1C(=O)OCOC(=O)CCCCCO[N+](=O)[O-] [(5), {[6-(Nitrooxy)hexanoyl]oxy}methyl 2-(acetyloxy)benzoate] |  | 1200 ± 200 |  |  |  |
| CC(=O)Oc1ccccc1C(=O)OCOC(=O)CCCC(CO[N+](=O)[O-])O[N+](=O)[O-] (centres unmarked) [(6), {[5,6-Bis(nitrooxy)hexanoyl]oxy}methyl 2-(acetyloxy)benzoate] | 2.7 | 390 ± 60 | >98 | 100 |  |
| CC(=O)Oc1ccccc1C(=O)OCOC(=O)CCCCCCO[N+](=O)[O-] [(7), {[7-(Nitrooxy)heptanoyl]oxy}methyl 2-(acetyloxy)benzoate] |  | 1600 ± 200 |  |  |  |
| CC(=O)Oc1ccccc1C(=O)OCOC(=O)CCCCC(CO[N+](=O)[O-])O[N+](=O)[O-] (centres unmarked) [(8), {[6,7-Bis(nitrooxy)heptanoyl]oxy}methyl 2-(acetyloxy)benzoate] | 2.5 | 520 ± 90 | >98 | 100 |  |
| CC(=O)Oc1ccccc1C(=O)OCOC(=O)Cc1ccc(OCCCO[N+](=O)[O-])cc1 [(9)] | 1.5 | 300 ± 60 | >98 | >98 |  |
| CC(=O)Oc1ccccc1C(=O)OCOC(=O)Cc1ccc(OCC(CO[N+](=O)[O-])O[N+](=O)[O-])cc1 (centres unmarked) [(10), [(2-{4-[2,3-Bis(nitrooxy)propoxy]phenyl}acetyl)oxy]methyl 2-(acetyloxy)benzoate] |  | 270 ± 50 |  |  |  |
| CC(=O)Oc1ccccc1C(=O)OCOC(=O)c1ccc(SCCCO[N+](=O)[O-])cc1 [(11), [(4-{[3-(Nitrooxy)propyl]thio}benzoyl)oxy]methyl 2-(acetyloxy)benzoate] | 2 |  | >98 | >98 |  |
| CC(=O)Oc1ccccc1C(=O)OCOC(=O)c1ccc(CCCO[N+](=O)[O-])cc1 [(12), ({4-[3-(Nitrooxy)propyl]benzoyl}oxy)methyl 2-(acetyloxy)benzoate] |  | 75 ± 14 |  |  | IC50 (human platelets; [3]): 41000 nM; IC50 (human platelets; [4]): 14000 nM |
| CC(=O)Oc1ccccc1C(=O)OCOC(=O)c1ccccc1OC(=O)CCC(CO[N+](=O)[O-])O[N+](=O)[O-] (centres unmarked) [(13), [(2-{[4,5-Bis(nitrooxy)pentanoyl]oxy}benzoyl)oxy]methyl 2-(acetyloxy)benzoate] |  | 82 ± 14 |  |  |  |
| CC(=O)Oc1ccccc1C(=O)OCOC(=O)c1ccc(OCCCO[N+](=O)[O-])cc1O [(14), {[2-(Acetyloxy)benzoyl]oxy}methyl 2-hydroxy-4-[3-(nitrooxy)propoxy]benzoate] |  | 8 ± 1.1 |  |  |  |
| CC(=O)Oc1ccccc1C(=O)OCOC(=O)c1ccc(SCC(CO[N+](=O)[O-])O[N+](=O)[O-])cc1 (centres unmarked) [(16), [(4-{[2,3-Bis(nitrooxy)propyl]thio}benzoyl)oxy]methyl 2-(acetyloxy)benzoate] | 4.8 |  | >98 | >98 |  |
| CC(=O)Oc1ccccc1C(=O)OCOC(=O)c1ccc(SCc2no[n+]([O-])c2C)cc1 [(20), [(4-{[(3-Methyl-furoxan-4-yl)methyl]thio}benzoyl)oxy]methyl 2-(acetyloxy)benzoate] |  |  |  |  | melting point: 96 to 97 °C |
| CC(=O)Oc1ccccc1C(=O)OCOC(=O)c1ccc(SCc2no[n+]([O-])c2C(N)=O)cc1 [(21), [(4-{[(3-Aminocarbonyl-furoxan-4-yl)methyl]thio}benzoyl)oxy]methyl 2-(acetyloxy)benzoate] |  |  |  |  | melting point: 149 to 151 °C |
| CC(=O)Oc1ccccc1C(=O)OCOC(=O)c1ccc(SCc2no[n+]([O-])c2C#N)cc1 [(22), [(4-{[(3-Cyano-furoxan-4-yl)methyl]thio}benzoyl)oxy]methyl 2-(acetyloxy)benzoate] |  |  |  |  | melting point: 98.5 to 101.5 °C |

Continued, in another order:

| half-life at 250 μM [2] [min] | SMILES | EC50 (rat aorta strips) [nM] | Stability in buffered solutions pH 1 % unchanged after 6 h [1] [%] | Stability in buffered solutions pH 7.4 % unchanged after 6 h [1] [%] | further results |
| --- | --- | --- | --- | --- | --- |
| 1 | CC(=O)Oc1ccccc1C(=O)OCOC(=O)c1ccc(S(=O)(=O)CCCO[N+](=O)[O-])cc1 [(15), [(4-{[3-(Nitrooxy)propyl]sulfonyl}benzoyl)oxy]methyl 2-(acetyloxy)benzoate] |  | >98 | 70 | IC50 (human platelets; [3]): 34000 nM; IC50 (human platelets; [4]): 17000 nM; half-life at 250 μM ([1]; phosphate buffer 50 mM pH 7.4, phosphate buffer pH 7.4, 37 °C, read-out: t1/2 in buffered solution pH 7.4): ~720 min |
| 4.2 | CC(=O)Oc1ccccc1C(=O)OC(C)OC(=O)c1ccc(SCCCO[N+](=O)[O-])cc1 (centres unmarked) [(24), 1-{[4-([3-(nitrooxy)propyl]thio}benzoyl)oxy]ethyl 2-(acetyloxy)Benzoate] |  | >98 | >98 |  |
| 63 | CC(=O)Oc1ccccc1C(=O)O [Aspirin, reference compound] |  |  |  | vasodilating activity EC50 ± SE (rat aorta strips): no effect |
